Experimental data taken from the NIST ThermoML archive (doi:10.1016/j.jct.2017.03.032).
Numbers after ± are expanded uncertainties.

Experiment: wn = mass fraction of the nth substance listed
Details: Gas, Burnett expansion method

F/C=C/C(F)(F)F [trans-1,3,3,3-tetrafluoropropene] + CC(C)C
Details	mass density [kg/m3]
300.19 K, 185.2 kPa, w1 = 0.65	6.6273 ± 0.76
300.19 K, 193.2 kPa, w1 = 0.75	7.4643 ± 0.82
300.19 K, 242.2 kPa, w1 = 0.65	8.7948 ± 0.78
300.19 K, 252.7 kPa, w1 = 0.75	9.9055 ± 0.84
300.19 K, 315.5 kPa, w1 = 0.65	11.6712 ± 0.82
300.19 K, 328.9 kPa, w1 = 0.75	13.1452 ± 0.89
300.19 K, 408.2 kPa, w1 = 0.65	15.4884 ± 0.84
300.19 K, 425.4 kPa, w1 = 0.75	17.4445 ± 0.93
300.21 K, 143.9 kPa, w1 = 0.7	5.2837 ± 0.77
300.21 K, 188.7 kPa, w1 = 0.7	7.0118 ± 0.79
300.21 K, 246.8 kPa, w1 = 0.7	9.3051 ± 0.81
300.21 K, 321.3 kPa, w1 = 0.7	12.3484 ± 0.85
300.21 K, 415.8 kPa, w1 = 0.7	16.3872 ± 0.88
305.17 K, 185.5 kPa, w1 = 0.8	7.2959 ± 0.82
305.17 K, 243 kPa, w1 = 0.8	9.6822 ± 0.85
305.17 K, 316.9 kPa, w1 = 0.8	12.8488 ± 0.89
305.17 K, 410.9 kPa, w1 = 0.8	17.0511 ± 0.92
305.18 K, 145.2 kPa, w1 = 0.85	5.912 ± 0.87
305.18 K, 169.9 kPa, w1 = 0.7	6.1677 ± 0.76
305.18 K, 189.6 kPa, w1 = 0.85	7.8456 ± 0.87
305.18 K, 249.6 kPa, w1 = 0.85	10.4115 ± 0.89
305.18 K, 290.8 kPa, w1 = 0.7	10.8618 ± 0.81
305.18 K, 325.5 kPa, w1 = 0.85	13.8167 ± 0.94
305.18 K, 377.9 kPa, w1 = 0.7	14.4143 ± 0.86
305.18 K, 420.8 kPa, w1 = 0.85	18.3356 ± 1
305.18 K, 536.7 kPa, w1 = 0.85	24.3325 ± 1.1
305.19 K, 181.1 kPa, w1 = 0.75	6.8373 ± 0.79
305.19 K, 222.7 kPa, w1 = 0.7	8.1848 ± 0.78
305.19 K, 237.2 kPa, w1 = 0.75	9.0735 ± 0.82
305.19 K, 401.5 kPa, w1 = 0.75	15.9791 ± 0.89
305.19 K, 487 kPa, w1 = 0.7	19.1285 ± 0.92
305.2 K, 162.4 kPa, w1 = 0.65	5.6789 ± 0.73
305.2 K, 212.9 kPa, w1 = 0.65	7.5363 ± 0.75
305.2 K, 278.3 kPa, w1 = 0.65	10.001 ± 0.78
305.2 K, 309.5 kPa, w1 = 0.75	12.0406 ± 0.85
305.2 K, 361.8 kPa, w1 = 0.65	13.2721 ± 0.83
305.2 K, 465.9 kPa, w1 = 0.65	17.6129 ± 0.85
305.21 K, 150 kPa, w1 = 0.9	6.375 ± 0.89
305.21 K, 196.9 kPa, w1 = 0.9	8.4599 ± 0.91
305.21 K, 257.6 kPa, w1 = 0.9	11.2269 ± 0.94
305.21 K, 335.6 kPa, w1 = 0.9	14.8987 ± 0.98
305.21 K, 434.3 kPa, w1 = 0.9	19.7715 ± 1
305.21 K, 557 kPa, w1 = 0.9	26.2379 ± 1.1
310.09 K, 153.4 kPa, w1 = 0.7	5.4721 ± 0.74
310.09 K, 569.4 kPa, w1 = 0.7	22.5217 ± 0.95
310.1 K, 157.4 kPa, w1 = 0.8	6.0902 ± 0.79
310.1 K, 201.9 kPa, w1 = 0.7	7.2614 ± 0.75
310.1 K, 207.9 kPa, w1 = 0.8	8.082 ± 0.81
310.1 K, 271.8 kPa, w1 = 0.75	10.3201 ± 0.81
310.1 K, 272 kPa, w1 = 0.8	10.7254 ± 0.85
310.1 K, 344.7 kPa, w1 = 0.7	12.7882 ± 0.82
310.1 K, 354.2 kPa, w1 = 0.75	13.6955 ± 0.85
310.1 K, 354.6 kPa, w1 = 0.8	14.233 ± 0.89
310.1 K, 458.2 kPa, w1 = 0.8	18.8881 ± 0.97
310.1 K, 459.6 kPa, w1 = 0.75	18.1746 ± 0.93
310.1 K, 583 kPa, w1 = 0.75	24.1187 ± 0.99
310.1 K, 583.3 kPa, w1 = 0.8	25.0653 ± 1
310.11 K, 158.1 kPa, w1 = 0.75	5.86 ± 0.77
310.11 K, 207.6 kPa, w1 = 0.75	7.7765 ± 0.79
310.11 K, 446.6 kPa, w1 = 0.7	16.9702 ± 0.89
310.12 K, 264.5 kPa, w1 = 0.7	9.6359 ± 0.78
310.12 K, 493.5 kPa, w1 = 0.9	22.3926 ± 1
310.13 K, 166 kPa, w1 = 0.85	6.6824 ± 0.86
310.13 K, 172 kPa, w1 = 0.9	7.22 ± 0.88
310.13 K, 225.6 kPa, w1 = 0.9	9.5815 ± 0.9
310.13 K, 294.9 kPa, w1 = 0.9	12.7151 ± 0.93
310.13 K, 337.1 kPa, w1 = 0.65	12.0235 ± 0.78
310.13 K, 372.9 kPa, w1 = 0.85	15.6171 ± 0.93
310.13 K, 383.7 kPa, w1 = 0.9	16.8736 ± 0.99
310.13 K, 436.3 kPa, w1 = 0.65	15.9559 ± 0.85
310.13 K, 556 kPa, w1 = 0.65	21.1744 ± 0.9
310.13 K, 607.5 kPa, w1 = 0.85	27.5031 ± 1.1
310.14 K, 196.8 kPa, w1 = 0.65	6.8271 ± 0.73
310.14 K, 216.8 kPa, w1 = 0.85	8.8678 ± 0.86
310.14 K, 258.2 kPa, w1 = 0.65	9.0598 ± 0.75
310.14 K, 285 kPa, w1 = 0.85	11.7678 ± 0.87
310.14 K, 479.8 kPa, w1 = 0.85	20.7246 ± 1
310.15 K, 149.8 kPa, w1 = 0.65	5.1443 ± 0.72
